# Experiments:
# plantain = assay: Greenhouse pot test, postemergent spray, visual control rating converted to percent control; type: in vivo
# Method in brief: (§1)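 Greenhouse-grown pots were sprayed postemergence at 43.46 gallons spray solution/acre. Control was scored visually on a 1–9 scale (1 = no control, 9 = plant death) at 24, 48 and 72 HAT and at 7, 14 and 21 DAT, then converted to percent control. Expected combination responses were calculated by Colby's formulas.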
# white clover = assay: as above; type: in vivo
# Method in brief: as §1
smiles,measurement,setting,value
"O=C(O)c1c(Cl)ccc2cc(Cl)cnc12 [Quinclorac, 3,7-dichloro-8-quinolinecarboxylic acid]",% Control Plantain,"plantain; Test 4, 7 DAT, 0.18 lbs/A",33.3%
same,Control (1-9) Plantain,"plantain; Test 4, 7 DAT, 0.18 lbs/A",3
same,% Control Plantain,"plantain; Test 4, 7 DAT, 0.375 lbs/A",22.2%
same,Control (1-9) Plantain,"plantain; Test 4, 7 DAT, 0.375 lbs/A",2
same,% Control Plantain,"plantain; Test 4, 7 DAT, 0.75 lbs/A",33.3%
same,Control (1-9) Plantain,"plantain; Test 4, 7 DAT, 0.75 lbs/A",3
same,% Control Plantain,"plantain; Test 4, 14 DAT, 0.18 lbs/A",33.3%
same,Control (1-9) Plantain,"plantain; Test 4, 14 DAT, 0.18 lbs/A",3
same,% Control Plantain,"plantain; Test 4, 14 DAT, 0.375 lbs/A",22.2%
same,Control (1-9) Plantain,"plantain; Test 4, 14 DAT, 0.375 lbs/A",2
same,% Control Plantain,"plantain; Test 4, 14 DAT, 0.75 lbs/A",33.3%
same,Control (1-9) Plantain,"plantain; Test 4, 14 DAT, 0.75 lbs/A",3
same,% Control Clover,"white clover; Test 1, 7 DAT, 0.18 lbs/A",33.3%
same,Control (1-9) Clover,"white clover; Test 1, 7 DAT, 0.18 lbs/A",3
same,% Control Clover,"white clover; Test 1, 7 DAT, 0.375 lbs/A",33.3%
same,Control (1-9) Clover,"white clover; Test 1, 7 DAT, 0.375 lbs/A",3
same,% Control Clover,"white clover; Test 1, 7 DAT, 0.75 lbs/A",33.3%
same,Control (1-9) Clover,"white clover; Test 1, 7 DAT, 0.75 lbs/A",3
same,% Control Clover,"white clover; Test 1, 14 DAT, 0.18 lbs/A",100.0%
same,Control (1-9) Clover,"white clover; Test 1, 14 DAT, 0.18 lbs/A",9
same,% Control Clover,"white clover; Test 1, 14 DAT, 0.375 lbs/A",100.0%
same,Control (1-9) Clover,"white clover; Test 1, 14 DAT, 0.375 lbs/A",9
same,% Control Clover,"white clover; Test 1, 14 DAT, 0.75 lbs/A",88.9%
same,Control (1-9) Clover,"white clover; Test 1, 14 DAT, 0.75 lbs/A",8
same,% Control Clover,"white clover; Test 1, 24 HAT, 0.18 lbs/A",11.1%
same,Control (1-9) Clover,"white clover; Test 1, 24 HAT, 0.18 lbs/A",1
same,% Control Clover,"white clover; Test 1, 24 HAT, 0.375 lbs/A",11.1%
same,Control (1-9) Clover,"white clover; Test 1, 24 HAT, 0.375 lbs/A",1
same,% Control Clover,"white clover; Test 1, 24 HAT, 0.75 lbs/A",11.1%
same,Control (1-9) Clover,"white clover; Test 1, 24 HAT, 0.75 lbs/A",1
same,% Control Clover,"white clover; Test 1, 48 HAT, 0.18 lbs/A",22.2%
same,Control (1-9) Clover,"white clover; Test 1, 48 HAT, 0.18 lbs/A",2
same,% Control Clover,"white clover; Test 1, 48 HAT, 0.375 lbs/A",33.3%
same,Control (1-9) Clover,"white clover; Test 1, 48 HAT, 0.375 lbs/A",3
same,% Control Clover,"white clover; Test 1, 48 HAT, 0.75 lbs/A",33.3%
same,Control (1-9) Clover,"white clover; Test 1, 48 HAT, 0.75 lbs/A",3
same,% Control Clover,"white clover; Test 2, 7 DAT, 0.18 lbs/A",66.7%
same,Control (1-9) Clover,"white clover; Test 2, 7 DAT, 0.18 lbs/A",6
same,% Control Clover,"white clover; Test 2, 7 DAT, 0.375 lbs/A",77.8%
same,Control (1-9) Clover,"white clover; Test 2, 7 DAT, 0.375 lbs/A",7
same,% Control Clover,"white clover; Test 2, 7 DAT, 0.75 lbs/A",77.8%
same,Control (1-9) Clover,"white clover; Test 2, 7 DAT, 0.75 lbs/A",7
same,% Control Clover,"white clover; Test 2, 14 DAT, 0.18 lbs/A",100.0%
same,Control (1-9) Clover,"white clover; Test 2, 14 DAT, 0.18 lbs/A",9
same,% Control Clover,"white clover; Test 2, 14 DAT, 0.375 lbs/A",100.0%
same,Control (1-9) Clover,"white clover; Test 2, 14 DAT, 0.375 lbs/A",9
same,% Control Clover,"white clover; Test 2, 14 DAT, 0.75 lbs/A",100.0%
same,Control (1-9) Clover,"white clover; Test 2, 14 DAT, 0.75 lbs/A",9
same,% Control Clover,"white clover; Test 2, 24 HAT, 0.18 lbs/A",22.2%
same,Control (1-9) Clover,"white clover; Test 2, 24 HAT, 0.18 lbs/A",2
same,% Control Clover,"white clover; Test 2, 24 HAT, 0.375 lbs/A",22.2%
same,Control (1-9) Clover,"white clover; Test 2, 24 HAT, 0.375 lbs/A",2
same,% Control Clover,"white clover; Test 2, 24 HAT, 0.75 lbs/A",22.2%
same,Control (1-9) Clover,"white clover; Test 2, 24 HAT, 0.75 lbs/A",2
same,% Control Clover,"white clover; Test 2, 72 HAT, 0.18 lbs/A",33.3%
same,Control (1-9) Clover,"white clover; Test 2, 72 HAT, 0.18 lbs/A",3
same,% Control Clover,"white clover; Test 2, 72 HAT, 0.375 lbs/A",33.3%
same,Control (1-9) Clover,"white clover; Test 2, 72 HAT, 0.375 lbs/A",3
same,% Control Clover,"white clover; Test 2, 72 HAT, 0.75 lbs/A",33.3%
same,Control (1-9) Clover,"white clover; Test 2, 72 HAT, 0.75 lbs/A",3
same,% Control Clover,"white clover; Test 4, 7 DAT, 0.18 lbs/A",33.3%
same,Control (1-9) Clover,"white clover; Test 4, 7 DAT, 0.18 lbs/A",3
same,% Control Clover,"white clover; Test 4, 7 DAT, 0.375 lbs/A",44.4%
same,Control (1-9) Clover,"white clover; Test 4, 7 DAT, 0.375 lbs/A",4
same,% Control Clover,"white clover; Test 4, 7 DAT, 0.75 lbs/A",33.3%
same,Control (1-9) Clover,"white clover; Test 4, 7 DAT, 0.75 lbs/A",3
same,% Control Clover,"white clover; Test 4, 14 DAT, 0.18 lbs/A",33.3%
same,Control (1-9) Clover,"white clover; Test 4, 14 DAT, 0.18 lbs/A",3
same,% Control Clover,"white clover; Test 4, 14 DAT, 0.375 lbs/A",55.6%
same,Control (1-9) Clover,"white clover; Test 4, 14 DAT, 0.375 lbs/A",5
same,% Control Clover,"white clover; Test 4, 14 DAT, 0.75 lbs/A",44.4%
same,Control (1-9) Clover,"white clover; Test 4, 14 DAT, 0.75 lbs/A",4

# From patent US20040266623A1, “SYNERGISTIC QUINCLORAC HERBICIDAL COMPOSITIONS” (priority 2003, published 2004)
